Measurements from the NIST ThermoML archive (doi:10.1021/je700266n).

Columns and labels:
[1] = 101 kPa, Liquid
[2] = xn = mol fraction of the nth substance listed; conditions: 101 kPa, Liquid

CCCCn1cc[n+](C)c1.F[P-](F)(F)(F)(F)F [1-butyl-3-methylimidazolium hexafluorophosphate]
[1]
Conditions | mass density [kg/m3]
293.15 K | 1371.57
298.15 K | 1367.22
303.15 K | 1362.86
308.15 K | 1358.56
313.15 K | 1354.3
323.15 K | 1345.98
333.15 K | 1337.7
343.15 K | 1330.76

CCCCn1cc[n+](C)c1.F[B-](F)(F)F [1-butyl-3-methylimidazolium tetrafluoroborate]
[1]
Conditions | mass density [kg/m3]
293.15 K | 1195.71
298.15 K | 1192.07
303.15 K | 1188.37
308.15 K | 1184.72
313.15 K | 1181.43
323.15 K | 1174.49
333.15 K | 1166.89
343.15 K | 1159.97

CCCCn1cc[n+](C)c1.F[B-](F)(F)F [1-butyl-3-methylimidazolium tetrafluoroborate] + c1ccccc1
mass density [kg/m3], [2]
Conditions | 293.15 K | 298.15 K | 303.15 K | 308.15 K | 313.15 K | 323.15 K | 333.15 K | 343.15 K
x1 = 0.4871 | 1105.2 | 1101.28 | 1097.21 | 1093.23 | 1089.58 | 1081.9 | 1073.73 | 1065.72
x1 = 0.5499 | 1120.99 | 1117.14 | 1113.2 | 1109.3 | 1105.72 | 1098.23 | 1090.17 | 1082.51
x1 = 0.5999 | 1132.31 | 1128.5 | 1124.57 | 1120.71 | 1117.22 | 1109.81 | 1101.75 | 1094.35
x1 = 0.7001 | 1151.84 | 1148.13 | 1144.26 | 1140.47 | 1137.04 | 1129.83 | 1121.95 | 1114.7
x1 = 0.8 | 1168.73 | 1165.02 | 1161.24 | 1157.48 | 1154.13 | 1147.03 | 1139.28 | 1132.17
x1 = 0.899 | 1182.8 | 1179.15 | 1175.38 | 1171.67 | 1168.35 | 1161.36 | 1153.64 | 1146.64
x1 = 0.9498 | 1189.44 | 1185.85 | 1182.12 | 1178.45 | 1175.16 | 1168.19 | 1160.54 | 1153.58
x1 = 1 | 1195.71 | 1192.07 | 1188.37 | 1184.72 | 1181.43 | 1174.49 | 1166.89 | 1159.97

CC#N [acetonitrile]
[1]
Conditions | mass density [kg/m3]
293.15 K | 782.3
298.15 K | 776.93
303.15 K | 771.44
308.15 K | 765.97
313.15 K | 760.68
323.15 K | 749.73
333.15 K | 738.19
343.15 K | 726.94

CC#N [acetonitrile] + CCCCn1cc[n+](C)c1.F[B-](F)(F)F
[2], x2 = 0
Conditions | mass density [kg/m3]
293.15 K | 782.3
298.15 K | 776.93
303.15 K | 771.44
308.15 K | 765.97
313.15 K | 760.68
323.15 K | 749.73
333.15 K | 738.19
343.15 K | 726.94

CC#N [acetonitrile] + CCCCn1cc[n+](C)c1.F[P-](F)(F)(F)(F)F
[2], x2 = 0
Conditions | mass density [kg/m3]
293.15 K | 782.3
298.15 K | 776.93
303.15 K | 771.44
308.15 K | 765.97
313.15 K | 760.68
323.15 K | 749.73
333.15 K | 738.19
343.15 K | 726.94

c1ccccc1 [benzene]
[1]
Conditions | mass density [kg/m3]
293.15 K | 878.23
298.15 K | 873.11
303.15 K | 867.59
308.15 K | 862.21
313.15 K | 856.82
323.15 K | 846.05
333.15 K | 835.76
343.15 K | 824.89

c1ccccc1 [benzene] + CCCCn1cc[n+](C)c1.F[B-](F)(F)F
[2], x2 = 0
Conditions | mass density [kg/m3]
293.15 K | 878.23
298.15 K | 873.11
303.15 K | 867.59
308.15 K | 862.21
313.15 K | 856.82
323.15 K | 846.05
333.15 K | 835.76
343.15 K | 824.89

c1ccccc1 [benzene] + CCCCn1cc[n+](C)c1.F[P-](F)(F)(F)(F)F
[2], x2 = 0
Conditions | mass density [kg/m3]
293.15 K | 878.23
298.15 K | 873.11
303.15 K | 867.59
308.15 K | 862.21
313.15 K | 856.82
323.15 K | 846.05
333.15 K | 835.76
343.15 K | 824.89

CCCO [propan-1-ol]
[1]
Conditions | mass density [kg/m3]
293.15 K | 804.97
298.15 K | 801.01
303.15 K | 796.89
308.15 K | 792.83
313.15 K | 789.07
323.15 K | 780.74
333.15 K | 771.75
343.15 K | 762.86

CCCO [propan-1-ol] + CCCCn1cc[n+](C)c1.F[B-](F)(F)F
[2], x2 = 0
Conditions | mass density [kg/m3]
293.15 K | 804.97
298.15 K | 801.01
303.15 K | 796.89
308.15 K | 792.83
313.15 K | 789.07
323.15 K | 780.74
333.15 K | 771.75
343.15 K | 762.86
